Reference: patent US20190175744A1, “INSULIN-INCRETIN CONJUGATES” (Merck Sharp & Dohme Corp., priority 2016, published 2019)
Like-named read-outs stand apart in the source and are kept apart here.

Assays:
[1] = biological target: T1, human GCGR (Homo sapiens, UniProt P47871); assay: cAMP activity assay, cells expressing human GCGR; type: cell-based; conditions: for GCGR/GLP1R ratio: Table 5, ratio of hGCGR EC50 to hGLP1R EC50;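 as to all read-outs here: cAMP production read by luminescence after one hour of peptide exposure at room temperature, EC50 from logistic curve fit, native glucagon and GLP-1 as control peptides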
T1 construct: expressed in transfected cells; grown with Blasticidin and Hygromycin
T1 sequence (P47871 26-477): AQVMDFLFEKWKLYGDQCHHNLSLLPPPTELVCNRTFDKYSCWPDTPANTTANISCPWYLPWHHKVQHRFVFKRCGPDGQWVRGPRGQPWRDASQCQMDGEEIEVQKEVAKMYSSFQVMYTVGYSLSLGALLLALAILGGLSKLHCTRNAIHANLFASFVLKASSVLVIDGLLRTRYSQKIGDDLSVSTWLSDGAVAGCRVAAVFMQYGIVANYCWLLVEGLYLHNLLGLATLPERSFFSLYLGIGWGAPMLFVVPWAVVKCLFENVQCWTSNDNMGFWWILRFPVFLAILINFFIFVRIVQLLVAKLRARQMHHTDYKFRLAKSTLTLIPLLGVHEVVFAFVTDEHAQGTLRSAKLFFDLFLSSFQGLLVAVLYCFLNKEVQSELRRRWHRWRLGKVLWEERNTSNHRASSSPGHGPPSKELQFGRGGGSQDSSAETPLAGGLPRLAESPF
Method: (§1) Activity of the incretin peptides or the conjugates at the Glucagon receptor (GCGR) and GLP-1 receptor (GLP1R) may be measured in a cAMP activity assay as follows.
(§2) Peptides are dissolved in 100% DMSO and serially diluted to generate 10 point titrations. The peptide solutions are then transferred into 384-well assay plates (150 nL/well). Assay ready frozen cells expressing human GLP1R or human GCGR are suspended in growth media consisting of DMEM medium (GIBCO), 10% FBS (GIBCO), 1×NEAA(GIBCO), 1×P/S (GIBCO), 10 μg/mL Blasticidin (GIBCO) and 200 μg/mL Hygromycin (GIBCO). […] The cell suspensions (15 μL) are then added to the assay plates containing the peptide solutions (30,000 cells/well for human GCGR; 10,000 cells/well for human GLP1R). The cells are incubated for one hour at room temperature in the dark.
(§3) Production of cAMP may be determined using HitHunterr cAMPXS kits (DiscoverX) following the manufacturer's protocol. The plates are incubated for overnight at room temperature in the dark. Luminescence may be measured using an EnVision Multilabel plate reader (Perkin Elmer). Native GLP-1 and Glucagon (Bachem) may be used as control peptides. EC50 values may be calculated using uses a 4 parameter logistic fit based on the Levenberg-Marquardt algorithm.

[2] = biological target: human GLP1R (Homo sapiens, UniProt P43220); assay: cAMP activity assay, cells expressing human GLP1R; type: cell-based
human GLP1R, sequence (P43220 24-463): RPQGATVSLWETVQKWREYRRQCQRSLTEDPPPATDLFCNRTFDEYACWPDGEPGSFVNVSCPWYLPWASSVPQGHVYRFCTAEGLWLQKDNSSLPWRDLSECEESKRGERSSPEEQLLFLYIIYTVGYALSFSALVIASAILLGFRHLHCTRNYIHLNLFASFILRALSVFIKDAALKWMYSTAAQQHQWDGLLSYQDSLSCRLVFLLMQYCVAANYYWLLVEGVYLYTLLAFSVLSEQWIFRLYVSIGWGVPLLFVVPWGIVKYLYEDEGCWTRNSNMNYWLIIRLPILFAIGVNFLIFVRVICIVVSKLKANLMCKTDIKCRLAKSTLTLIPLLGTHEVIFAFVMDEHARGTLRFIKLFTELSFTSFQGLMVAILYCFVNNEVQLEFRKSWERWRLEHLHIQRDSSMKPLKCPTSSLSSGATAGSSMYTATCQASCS
Method: as §1, §2, §3

[3] = Table 5, incretin peptides, cAMP, read-out: hGCGR_EC50
[4] = Table 5, incretin peptides, cAMP, read-out: hGLP1R EC50

EC50 [1, 3] [nM] | GCGR/GLP1R ratio [1] | EC50 [2, 4] [nM] | Compound | EC50 [1] [nM] | EC50 [2] [nM]
0.05 | 1.0 | 0.05 | CCCCCCCCCCCCCCCC(=O)N[C@@H](CCC(=O)N[C@@H](CCC(=O)NCCCC[C@H](NC(=O)[C@H](CC(=O)O)NC(=O)[C@H](CO)NC(=O)[C@@H](NC(=O)[C@H](Cc1ccccc1)NC(=O)[C@@H](NC(=O)CNC(=O)[C@H](CCC(N)=O)NC(=O)[C@@H](CO)NC(=O)[C@@H](N)Cc1c[nH]cn1)[C@@H](C)O)[C@@H](C)O)C(=O)N[C@@H](CO)C(=O)N[C@@H](CCCCN)C(=O)N[C@@H](Cc1ccc(O)cc1)C(=O)N[C@@H](CC(C)C)C(=O)N[C@@H](CC(=O)O)C(=O)N[C@@H](CCC(=O)O)C(=O)N[C@@H](CCCNC(=N)N)C(=O)N[C@@H](C)C(=O)N[C@@H](C)C(=O)N[C@@H](CCC(N)=O)C(=O)N[C@@H](CC(=O)O)C(=O)N[C@@](C)(Cc1ccccc1)C(=O)N[C@H](C(=O)N[C@@H](CCCCN=[N+]=[N-])C(=O)N[C@@H](Cc1c[nH]c2ccccc12)C(=O)N[C@@H](CC(C)C)C(=O)N[C@@H](CCS(C)(=O)=O)C(=O)N[C@@H](CC(=O)O)C(=O)N[C@H](C(N)=O)[C@@H](C)O)C(C)C)C(=O)O)C(=O)O [PEP35] |  | 
 | 0.4 | 0.06 | CCCCCCCCCCCCCCCC(=O)N[C@@H](CCC(=O)N[C@@H](CCC(=O)NCCCC[C@H](NC(=O)[C@H](CC(=O)O)NC(=O)[C@H](CO)NC(=O)[C@@H](NC(=O)[C@H](Cc1ccccc1)NC(=O)[C@@H](NC(=O)CNC(=O)[C@H](CCC(N)=O)NC(=O)[C@@H](CO)NC(=O)[C@@H](N)Cc1c[nH]cn1)[C@@H](C)O)[C@@H](C)O)C(=O)N[C@@H](CO)C(=O)N[C@@H](CCCCN)C(=O)N[C@@H](Cc1ccc(O)cc1)C(=O)N[C@@H](CC(C)C)C(=O)N[C@@H](CC(=O)O)C(=O)N[C@@H](CCC(=O)O)C(=O)N[C@@H](CCCNC(=N)N)C(=O)N[C@@H](C)C(=O)N[C@@H](C)C(=O)N[C@@H](CCC(N)=O)C(=O)N[C@@H](CC(=O)O)C(=O)N[C@@H](Cc1ccccc1)C(=O)N[C@H](C(=O)N[C@@H](CCCCN=[N+]=[N-])C(=O)N[C@@H](Cc1c[nH]c2ccccc12)C(=O)N[C@@H](CC(C)C)C(=O)N[C@@H](CC(C)C)C(=O)N[C@@H](CCC(=O)N[C@H](C(N)=O)[C@@H](C)O)C(=O)O)C(C)C)C(=O)O)C(=O)O [PEP11] | 0.03 | 
3.9 | 97.5 | 0.04 | CSCC[C@H](NC(=O)[C@H](CC(C)C)NC(=O)[C@H](Cc1c[nH]c2ccccc12)NC(=O)[C@H](CCC(N)=O)NC(=O)[C@@H](NC(=O)[C@H](Cc1ccccc1)NC(=O)[C@H](CC(=O)O)NC(=O)[C@H](CCC(N)=O)NC(=O)[C@H](C)NC(=O)[C@H](C)NC(=O)[C@H](CCCNC(=N)N)NC(=O)C(C)(C)NC(=O)[C@H](CC(=O)O)NC(=O)[C@H](CC(C)C)NC(=O)[C@H](Cc1ccc(O)cc1)NC(=O)[C@H](CCCCN)NC(=O)[C@H](CO)NC(=O)[C@H](CCCCN)NC(=O)[C@H](CC(=O)O)NC(=O)[C@H](CO)NC(=O)[C@@H](NC(=O)[C@H](Cc1ccccc1)NC(=O)[C@@H](NC(=O)CNC(=O)[C@H](CCC(N)=O)NC(=O)C(C)(C)NC(=O)[C@@H](N)Cc1c[nH]cn1)[C@@H](C)O)[C@@H](C)O)C(C)C)C(=O)N[C@@H](CC(N)=O)C(=O)N[C@H](C(=O)N[C@@H](CCCCN)C(=O)N[C@@H](CCC(N)=O)C(=O)N[C@@H](CCCCN=[N+]=[N-])C(N)=O)[C@@H](C)O [PEP72] |  | 
 | 4.5 | 0.5 | CC(C)C[C@H](NC(=O)[C@H](Cc1ccc(O)cc1)NC(=O)[C@H](CCCCN)NC(=O)[C@H](CO)NC(=O)[C@H](Cc1ccc(O)cc1)NC(=O)[C@H](CC(=O)O)NC(=O)[C@H](CO)NC(=O)[C@@H](NC(=O)[C@H](Cc1ccccc1)NC(=O)[C@@H](NC(=O)CNC(=O)[C@H](CCC(N)=O)NC(=O)C(C)(C)NC(=O)[C@@H](N)Cc1c[nH]cn1)[C@@H](C)O)[C@@H](C)O)C(=O)N[C@@H](CC(=O)O)C(=O)N[C@@H](C)C(=O)N[C@@H](CCCNC(=N)N)C(=O)N[C@@H](C)C(=O)N[C@@H](C)C(=O)N[C@@H](CCCCNC(=O)COCCOCCNC(=O)COCCOCCNC(=O)CC[C@H](NC(=O)CCCCCCCCCCCCCCCCC(=O)O)C(=O)O)C(=O)N[C@@H](CC(=O)O)C(=O)N[C@@H](Cc1ccccc1)C(=O)N[C@H](C(=O)N[C@@H](CCCCN=[N+]=[N-])C(=O)N[C@@H](Cc1c[nH]c2ccccc12)C(=O)N[C@@H](CC(C)C)C(=O)N[C@@H](CCS(C)(=O)=O)C(=O)N[C@@H](CC(=O)O)C(=O)N[C@H](C(N)=O)[C@@H](C)O)C(C)C [PEP30] |  | 
 | 2.0 | 0.06 | CC(C)C[C@H](NC(=O)[C@H](Cc1ccc(O)cc1)NC(=O)[C@H](CCCCN)NC(=O)[C@H](CO)NC(=O)[C@H](CCCCN)NC(=O)[C@H](CC(=O)O)NC(=O)[C@H](CO)NC(=O)[C@@H](NC(=O)[C@H](Cc1ccccc1)NC(=O)[C@@H](NC(=O)CNC(=O)[C@H](CCC(N)=O)NC(=O)[C@@H](CO)NC(=O)[C@@H](N)Cc1c[nH]cn1)[C@@H](C)O)[C@@H](C)O)C(=O)N[C@@H](CC(=O)O)C(=O)N[C@@H](CCC(=O)O)C(=O)N[C@@H](CCCNC(=N)N)C(=O)N[C@@H](C)C(=O)N[C@@H](C)C(=O)N[C@@H](CCCCN=[N+]=[N-])C(=O)N[C@@H](CC(=O)O)C(=O)N[C@@H](Cc1ccccc1)C(=O)N[C@H](C(=O)N[C@@H](CCC(N)=O)C(=O)N[C@@H](Cc1c[nH]c2ccccc12)C(=O)N[C@@H](CC(C)C)C(=O)N[C@@H](CC(C)C)C(=O)N[C@@H](CC(=O)O)C(=O)N[C@H](C(N)=O)[C@@H](C)O)C(C)C [PEP71] | 0.12 | 

Compound | EC50 [1, 3] [nM] | GCGR/GLP1R ratio [1] | EC50 [2, 4] [nM] | EC50 [1] [nM] | EC50 [2] [nM]
CCCCCCCCCCCCCCCC(=O)N[C@@H](CCC(=O)N[C@@H](CCC(=O)NCCCC[C@H](NC(=O)[C@H](CC(=O)O)NC(=O)[C@H](CO)NC(=O)[C@@H](NC(=O)[C@H](Cc1ccccc1)NC(=O)[C@@H](NC(=O)CNC(=O)[C@H](CCC(N)=O)NC(=O)[C@@H](CO)NC(=O)[C@@H](N)Cc1c[nH]cn1)[C@@H](C)O)[C@@H](C)O)C(=O)N[C@@H](CO)C(=O)N[C@@H](CCCCN)C(=O)N[C@@H](Cc1ccc(O)cc1)C(=O)N[C@@H](CC(C)C)C(=O)N[C@@H](CC(=O)O)C(=O)N[C@@H](CO)C(=O)N[C@@H](CCCNC(=N)N)C(=O)N[C@@H](CCCNC(=N)N)C(=O)N[C@@H](C)C(=O)N[C@@H](Cc1c[nH]cn1)C(=O)N[C@@H](CC(=O)O)C(=O)N[C@@H](Cc1ccccc1)C(=O)N[C@H](C(=O)N[C@@H](CCCCN=[N+]=[N-])C(=O)N[C@@H](Cc1c[nH]c2ccccc12)C(=O)N[C@@H](CC(C)C)C(=O)N[C@@H](CC(C)C)C(=O)N[C@@H](CC(N)=O)C(=O)N[C@H](C(N)=O)[C@@H](C)O)C(C)C)C(=O)O)C(=O)O [PEP13] |  | 0.4 |  | 0.04 | 0.1
CCCCCCCCCCCCCCCC(=O)N[C@@H](CCC(=O)N[C@@H](CCC(=O)NCCCC[C@H](NC(=O)[C@H](CC(=O)O)NC(=O)[C@H](CO)NC(=O)[C@@H](NC(=O)[C@H](Cc1ccccc1)NC(=O)[C@@H](NC(=O)CNC(=O)[C@H](CCC(N)=O)NC(=O)C(C)(C)NC(=O)[C@@H](N)Cc1c[nH]cn1)[C@@H](C)O)[C@@H](C)O)C(=O)N[C@@H](CO)C(=O)N[C@@H](CCCCN)C(=O)N[C@@H](Cc1ccc(O)cc1)C(=O)N[C@@H](CC(C)C)C(=O)N[C@@H](CC(=O)O)C(=O)NC(C)(C)C(=O)N[C@@H](CCCNC(=N)N)C(=O)N[C@@H](C)C(=O)N[C@@H](C)C(=O)N[C@@H](CCC(N)=O)C(=O)N[C@@H](CC(=O)O)C(=O)N[C@@H](Cc1ccccc1)C(=O)N[C@H](C(=O)N[C@@H](CCC(N)=O)C(=O)N[C@@H](Cc1c[nH]c2ccccc12)C(=O)N[C@@H](CC(C)C)C(=O)N[C@@H](CC(C)C)C(=O)N[C@@H](CC(=O)O)C(=O)N[C@H](C(=O)N[C@@H](CCCCN)C(=O)N[C@@H](CCCCNC(=O)COCCOCCNC(=O)CCCCN=[N+]=[N-])C(N)=O)[C@@H](C)O)C(C)C)C(=O)O)C(=O)O [PEP20] |  | 2.0 |  | 0.1 | 0.05
CCCCCCCCCCCCCCCC(=O)N[C@@H](CCC(=O)N[C@@H](CCC(=O)NCCCC[C@H](NC(=O)[C@H](CC(=O)O)NC(=O)[C@H](CO)NC(=O)[C@@H](NC(=O)[C@H](Cc1ccccc1)NC(=O)[C@@H](NC(=O)CNC(=O)[C@H](CCC(N)=O)NC(=O)[C@@H](CO)NC(=O)[C@@H](N)Cc1c[nH]cn1)[C@@H](C)O)[C@@H](C)O)C(=O)N[C@@H](CO)C(=O)N[C@@H](CCCCN)C(=O)N[C@@H](Cc1ccc(O)cc1)C(=O)N[C@@H](CC(C)C)C(=O)N[C@@H](CC(=O)O)C(=O)N[C@@H](CCC(=O)O)C(=O)N[C@@H](CCCNC(=N)N)C(=O)N[C@@H](C)C(=O)N[C@@H](C)C(=O)N[C@@H](CCC(N)=O)C(=O)N[C@@](C)(CC(=O)O)C(=O)N[C@@H](Cc1ccccc1)C(=O)N[C@H](C(=O)N[C@@H](CCCCN=[N+]=[N-])C(=O)N[C@@H](Cc1c[nH]c2ccccc12)C(=O)N[C@@H](CC(C)C)C(=O)N[C@@H](CCS(C)(=O)=O)C(=O)N[C@@H](CC(=O)O)C(=O)N[C@H](C(N)=O)[C@@H](C)O)C(C)C)C(=O)O)C(=O)O [PEP34] |  | 1.0 |  | 0.05 | 0.05
CCCCCCCCCCCCCCCC(=O)N[C@@H](CCC(=O)N[C@@H](CCC(=O)NCCCC[C@H](NC(=O)[C@H](CC(=O)O)NC(=O)[C@H](CO)NC(=O)[C@@H](NC(=O)[C@H](Cc1ccccc1)NC(=O)[C@@H](NC(=O)CNC(=O)[C@H](CCC(N)=O)NC(=O)C(C)(C)NC(=O)[C@@H](N)Cc1c[nH]cn1)[C@@H](C)O)[C@@H](C)O)C(=O)N[C@@H](CO)C(=O)N[C@@H](CCCCN)C(=O)N[C@@H](Cc1ccc(O)cc1)C(=O)N[C@@H](CC(C)C)C(=O)N[C@@H](CC(=O)O)C(=O)NC(C)(C)C(=O)N[C@@H](CCCNC(=N)N)C(=O)N[C@@H](C)C(=O)N[C@@H](C)C(=O)N[C@@H](CCC(N)=O)C(=O)N[C@@H](CC(=O)O)C(=O)N[C@@H](Cc1ccccc1)C(=O)N[C@H](C(=O)N[C@@H](CCCCN=[N+]=[N-])C(=O)N[C@@H](Cc1c[nH]c2ccccc12)C(=O)N[C@@H](CC(C)C)C(=O)N[C@@H](CCS(C)(=O)=O)C(=O)N[C@@H](CC(=O)O)C(=O)N[C@H](C(N)=O)[C@@H](C)O)C(C)C)C(=O)O)C(=O)O [PEP10] |  | 0.7 |  | 0.02 | 0.03
